Results as given in patent US20130023550A1, “PHARMACEUTICAL COMPOSITIONS AND METHODS OF MAKING SAME” (GLAXO WELLCOME MANUFACTURING PTE, LTD, priority 2010, published 2013).
Converted amounts (≈) assume the structure as drawn. Like-named read-outs stand apart in the source and are kept apart here. Values belong to the compound of their own block, whether it stands above or below them.

How the values were obtained:
Type in all cases: physicochemical
[1] = Binding constant Kb by fluorescence titration
Text: The binding constant between a drug substance and complexing agent can be determined using spectroscopic techniques as outlined by Connors and references therein (Kenneth A. Connors: “Binding Constants”, Wiley-Interscience; 1. edition (April 1987)).
The simplified equilibrium for complexation between pazopanib (034 in Equation 1 shown below) drug substance and13-cyclodextrin sulfobutylether (e.g., Captisol® from Cydex Pharmaceuticals, Inc., Lenexa, Kans.) has been shown as Equation 1, where Kd is the dissociation constant and Kb is the binding constant, 034(s) is solid precipitate for pazopanib, 034(aq) is the aqueous concentration of unbound pazopanib (free state without complexation), Captisol(aq) is the difference between the initial Captisol concentration and the concentration of Captisol in the complexed state with drug substance and pazopanib. […] is the concentration of the complex between pazopanib and 034·Captisol (complexed state).
A titration experiment is performed using pazopanib (approximately 0.05 mg/ml, 10^-4M) solution by varying the concentration of β-cyclodextrin sulfobutylether solution and measuring the fluorescence intensity (excitation at 342 nm, emission at 375 nm) of the resulting solutions. Initial Captisol concentration are chosen to describe the entire titration curve appropriately and to prevent nucleation and precipitation of pazopanib in the solution. […]
The measured Fluorescence intensity is directly related to the concentration of the complexed state 034·Captisol(aq) since uncomplexed pazopanib 034(aq) and Captisol Captisol(aq) have negligible fluorescence yield. The measured fluorescence intensities are fitted using a non-linear simplex fitting routine to determine the value of the binding constant Kb. The Fluorescence intensities are plotted as a function of β-cyclodextrin sulfobutylether concentration according to Benesi and Hildebrandt to determine the binding stoichiometry. […]
Varian Cary Eclipse Fluorescence spectrometer (SN: EL05043801) with a lcm cuvette and orthogonal detection geometry or equivalent. […]

[2] = Calculation of cyclodextrin utility number UCD; conditions: for K: conservative value used for UCD calculations
Text: The cyclodextrin utility number, UCD, is a dimensionless number used to assess the feasibility of using cyclodextrin in dosage forms. UCD is a lumped parameter consisting of the dose of the drug, the workable amount of CD, the binding constant, and the drug solubility in the absence of CDs. UCD can be used to predict the solubility of ionizable drugs showing a synergistic increase in solubility due to ionization and complexation. See, Rao, V. M., Stella, V. J., J Pharm Sci, 92, 5 927, May 2003. UCD is calculated using the following equation:
UCD=(KSo/1+KSo)(MCD/MD)(MWD/MWCD)
where, mD is dose of drug; mCD is dose of cyclodextrin; MWD is molecular weight drug; MWCD is molecular weight cyclodextrin; and Ko is binding constant.
UCD=(KSo/1+KSo)(mCD/mD)(MWD/MWCD)
Binding constant, K, as described in Example 4 above.
Solubility, So, as described in Example 5 above. from Rao, V. M., Stella, V. J., J Pharm Sci, 92, 5 927, May 2003.

[3] = Solubility of pazopanib as a function of pH in phosphate buffer; conditions: for solubility at 5 days: phosphate buffer, 25 °C, thermodynamic from solid
Protocol: • 1) Prep 25 mM phosphate buffer (using monobasic Sodium Phosphate, monohydrate), adjust the buffer solution to different target pH using 1N NaOH/HCl. • 2) Add excessive pazopanib free base to the above solutions (˜20 mg free base per 10 mL buffer solution), vortex the solutions, and mix well. […] Equilibrate the solutions for 5 days with agitation. • 4) After 5 days, measure the pH of the solubility solution immediately, and record the pH, and filter the solution into a test tube using a 0.22um PVDF filter. • 5) Dilute the solution by 1:1 (v/v) with 50:50:0.1 water:acetonitrile:TFA (v/v/v) diluent, and mix well. • 6) The solubility of the solutions is analyzed by HPLC at the detection wavelength of 268 nm.
Mobile Phase A: 100:0.1 (v/v) Water:TFA Mobile Phase B: 100:0.1 (v/v) Acetonitrile:TFA Column: Phenomenex Develosil RPAqueous-3, C-30, 3 um, 150 mm×4.6 mm Column temperature: 35° C. Flow rate: Isocratic at 1.0 mL/min, A/B=60/40 Detector wavelength: 268 nm Injection volume: 10 μ L Total run time: 4 minutes

[4] = Osmolality contribution of Captisol

binding constant, Kb ([1]; pH of 4, temperature of 40° C.): 9763 mol⁻¹
binding constant, Kb ([1]; pH of 5, temperature of 25° C.): 9130 mol⁻¹
binding constant of pazopanib, K ([1]; with modified cyclodextrin such as Captisol): approximately 10,000
(KSo)/(1 + KSo) ([2]; pH 3.5): 0.314
K ([2]; pH 3.5): 10000 L/mol
(KSo)/(1 + KSo) ([2]; pH 4.0): 0.023
K ([2]; pH 4.0): 10000 L/mol
(KSo)/(1 + KSo) ([2]; pH 4.25): 0.012
K ([2]; pH 4.25): 10000 L/mol
(KSo)/(1 + KSo) ([2]; pH 4.5): 0.0006
K ([2]; pH 4.5): 10000 L/mol
(KSo)/(1 + KSo) ([2]; pH 5.0): 0.0001
K ([2]; pH 5.0): 10000 L/mol
So ([3]; pH 3.5): 4.57e-05 mol/L
solubility in phosphate buffer ([3]; pH 3.5, 25° C.): ~20 µg/mL (≈ 45.7 µM)
So ([3]; pH 4.0): 2.38e-06 mol/L
solubility in phosphate buffer ([3]; pH 4.0, 25° C.): ~1.043 µg/mL (≈ 2.38 µM)
solubility in phosphate buffer (molar value) ([3]; pH 4.0, 25° C.): ~2.38×10^−6
solubility in phosphate buffer ([3]; pH 4.25, 25° C.): ~0.534 µg/mL (≈ 1.22 µM)
solubility, So ([3]; pH 4.25, 25° C.): ~1.22 µM (≈ 0.534 µg/mL)
solubility in phosphate buffer ([3]; pH 4.5, 25° C.): ~0.025 µg/mL (≈ 0.0571 µM)
solubility, So ([3]; pH 4.5, 25° C.): ~0.0571 µM (≈ 0.025 µg/mL)
solubility, So ([3]; pH 5.0, 25° C.): 0.0137 µM (≈ 0.00599 µg/mL)
solubility at 5 days ([3]; pH 3.5, aqueous buffer, pH 3.5, 25° C., read-out: solubility in phosphate buffer): 20 µg/mL
solubility at 5 days ([3]; pH 3.5, aqueous buffer, pH 3.5, 25° C., read-out: solubility in phosphate buffer (molar value)): 45.7 µM
solubility at 5 days ([3]; pH 4, aqueous buffer, pH 4.0, 25° C., read-out: solubility in phosphate buffer): 1.04 µg/mL
solubility at 5 days ([3]; pH 4, aqueous buffer, pH 4.0, 25° C., read-out: solubility in phosphate buffer (molar value)): 2.38 µM
solubility at 5 days ([3]; pH 4.25, aqueous buffer, pH 4.25, 25° C., read-out: solubility in phosphate buffer): 0.534 µg/mL
solubility at 5 days ([3]; pH 4.25, aqueous buffer, pH 4.25, 25° C., read-out: solubility, So): 1.22 µM
solubility at 5 days ([3]; pH 4.5, aqueous buffer, pH 4.5, 25° C., read-out: solubility in phosphate buffer): 0.025 µg/mL
solubility at 5 days ([3]; pH 4.5, aqueous buffer, pH 4.5, 25° C., read-out: solubility, So): 0.0571 µM
Compound: Cc1ccc(Nc2nccc(N(C)c3ccc4c(C)n(C)nc4c3)n2)cc1S(N)(=O)=O [pazopanib]

Osmolality (mOsm) ([4]; Captisol 2 % (w/v)): 20 mOsm
Osmolality (mOsm) ([4]; Captisol 3 % (w/v)): 50 mOsm
Osmolality (mOsm) ([4]; Captisol 4 % (w/v)): 80 mOsm
Osmolality (mOsm) ([4]; Captisol 5 % (w/v)): 110 mOsm
Osmolality (mOsm) ([4]; Captisol 6 % (w/v)): 140 mOsm
Osmolality (mOsm) ([4]; Captisol 7 % (w/v)): 170 mOsm
Osmolality (mOsm) ([4]; Captisol 8 % (w/v)): 201 mOsm
Osmolality (mOsm) ([4]; Captisol 9 % (w/v)): 231 mOsm
Osmolality (mOsm) ([4]; Captisol 10 % (w/v)): 261 mOsm
Osmolality (mOsm) ([4]; Captisol 11 % (w/v)): 291 mOsm
Osmolality (mOsm) ([4]; Captisol 12 % (w/v)): 321 mOsm
Osmolality (mOsm) ([4]; Captisol 13 % (w/v)): 351 mOsm
Compound: β-cyclodextrin sulfobutylether [Captisol]
